In US20230085803A1, “METHOD FOR SEARCHING AND SCREENING FOR TARGET OF ANTI-CANCER AGENT USING NON-HUMAN ANIMAL MODEL HAVING NOG ESTABLISHED CANCER CELL LINE TRANSPLANTED THEREIN” (CHUGAI SEIYAKU KABUSHIKI KAISHA, priority 2009, published 2023):

How the values were obtained:
[1] = tested on: Well-differentiated adenocarcinoma (NOG-established colon cancer cell line); experiment: Histopathology of tumor masses after 5-FU administration, well-differentiated adenocarcinoma transplanted into NOG mice; type: in vivo, human; conditions: NOG mice transplanted with an NOG-established colon cancer cell line, after administration of 5-fluorouracil; legend does not name the line
Excerpt: (§1) The present inventors used NOG-established cancer cell lines that had been established so as to meet the criterion that human colon cancer, stomach cancer, lung cancer, breast cancer, or pancreatic cancer can be transplanted or passaged over three or more generations in NOG mice (Fujii E. et al., Pathol Int. 2008; 58: 559-567). In this Example, NOG-established cancer cell lines were subcutaneously transplanted into NOG mice. 28 days after transplantation, the mice were dissected, and the implants were excised and fixed with 4% paraformaldehyde at 4° C. for 16 to 24 hours. Then, the fixed samples were embedded and sliced into thin section samples by the AMeX method (Fujii E. et al., Pathol Int. 2008; 58: 559-567). The tissues were stained by HE and immunohistochemistry (IHC). Anti-E-cadherin antibody (DakoCytomation) and anti-fibronectin antibody (DakoCytomation) were used as a primary antibody. The visualization was carried out by LSAB method using DAB (DAB Map kit, Roche Diagnostics).
(§2) Each NOG-established cancer cell line whose tissue morphology was (1) well-differentiated adenocarcinoma, (2) moderately-differentiated adenocarcinoma, or (3) poorly-differentiated adenocarcinoma in the donors' human colon cancer were subcutaneously transplanted into NOG mice. […]

[2] = tested on: moderately-differentiated adenocarcinoma (NOG-established colon cancer cell line); experiment: Histopathology of tumor masses after 5-FU administration, moderately-differentiated adenocarcinoma transplanted into NOG mice; type: in vivo, human; conditions: NOG mice transplanted with an NOG-established colon cancer cell line, after administration of 5-fluorouracil; legend does not name the line
Excerpt: as §1, §2

O=c1[nH]cc(F)c(=O)[nH]1 [5-FU, 5-fluorouracil]
poorly-differentiated glandular ducts (histopathology, FIG. 13) [1]: increase
budding structures (histopathology, FIG. 13) [2]: decrease
